# Laboratory results taken from patent US20120045393A1 (priority 2009, published 2012).
# Non-standard residues stand in square brackets, D forms with d. Residues, ends and D or L forms follow the SMILES beside them. *: point of attachment. DOTA = O=C(O)CN1CCN(CC(=O)O)CCN(CC(=O)*)CCN(CC(=O)O)CC1; Bpa = N[C@@H](Cc1ccc(C(=O)c2ccccc2)cc1)C(=O)O; Ala(4-thiazolyl) = N[C@@H](Cc1cscn1)C(=O)O; d2Nal = N[C@H](Cc1ccc2ccccc2c1)C(=O)O; azaGly = NNC(=O)O; Sar = CNCC(=O)O
# Tested on: LHRH binding sites on human ovarian cancer cells (EFO-27)
# Conditions: not given
# 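Also: Cell-associated radioactivity on confluent EFO-27 monolayers in 96-well plates, measured by microplate scintillation counting.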
row,Structure (SMILES),EC50
1,CN(C(=O)CN1CCN(CC(=O)O)CCN(CC(=O)O)CCN(CC(=O)O)CC1)[C@H](Cc1ccc2ccccc2c1)C(=O)N[C@@H](Cc1c[nH]cn1)C(=O)N[C@@H](Cc1c[nH]c2ccccc12)C(=O)N[C@@H](CO)C(=O)N[C@@H](Cc1c[nH]cn1)C(=O)N[C@H](CCCNC(=N)N)C(=O)N[C@@H](Cc1c[nH]c2ccccc12)C(=O)N[C@@H](Cc1ccc(C(=O)c2ccccc2)cc1)C(=O)N1CCC[C@H]1C(=O)NNC(N)=O [BRU-3003],760 nM
2,CN(CC(=O)N[C@@H](Cc1c[nH]cn1)C(=O)N[C@@H](Cc1c[nH]c2ccccc12)C(=O)N[C@@H](CO)C(=O)N[C@@H](Cc1c[nH]cn1)C(=O)N[C@H](CCCNC(=N)N)C(=O)N[C@@H](Cc1c[nH]c2ccccc12)C(=O)N1CCC[C@H]1C(=O)NNC(N)=O)C(=O)CN1CCN(CC(=O)O)CCN(CC(=O)O)CCN(CC(=O)O)CC1 [BRU-2767] (HELM PEPTIDE1{[O=C(O)CN1CCN(CC(=O)O)CCN(CC(=O)[*:2])CCN(CC(=O)O)CC1].[Sar].H.W.S.H.[dR].W.P.[O=C(NN[*:1])[*:2]].[am]}$$$$V2.0),10000 nM
3,CNCC(=O)N[C@@H](CCCNC(=N)N)C(=O)N[C@@H](Cc1c[nH]c2ccccc12)C(=O)N[C@@H](CO)C(=O)N[C@@H](Cc1c[nH]cn1)C(=O)N[C@H](CCCNC(=N)N)C(=O)N[C@@H](Cc1c[nH]c2ccccc12)C(=O)N[C@@H](Cc1ccc(C(=O)c2ccccc2)cc1)C(=O)N1CCC[C@H]1C(=O)NCCOCCOCCNC(=O)CN1CCN(CC(=O)O)CCN(CC(=O)O)CCN(CC(=O)O)CC1 [compound 3043],330 ± 180 nM
4,CC(=O)N[C@H](Cc1ccc2ccccc2c1)C(=O)N[C@@H](CCCNC(=N)N)C(=O)N[C@@H](Cc1c[nH]c2ccccc12)C(=O)N[C@@H](CO)C(=O)N[C@@H](Cc1c[nH]cn1)C(=O)N[C@H](CCCNC(=N)N)C(=O)N[C@@H](Cc1c[nH]c2ccccc12)C(=O)N[C@@H](Cc1ccc(C(=O)c2ccccc2)cc1)C(=O)N1CCC[C@H]1C(=O)NCCOCCNC(=O)CN1CCN(CC(=O)O)CCN(CC(=O)O)CCN(CC(=O)O)CC1 [compound 2992],470 ± 20 nM
5,CN(CC(=O)N[C@@H](Cc1c[nH]c2ccccc12)C(=O)N[C@@H](CO)C(=O)N[C@@H](Cc1cscn1)C(=O)N[C@H](CCCNC(=N)N)C(=O)N[C@@H](Cc1c[nH]c2ccccc12)C(=O)N[C@@H](Cc1ccc(C(=O)c2ccccc2)cc1)C(=O)N1CCC[C@H]1C(=O)NNC(N)=O)C(=O)CN1CCN(CC(=O)O)CCN(CC(=O)O)CCN(CC(=O)O)CC1 [compound 2740] ({DOTA}-[Sar]WS[Ala(4-thiazolyl)][dR]W[Bpa]P[azaGly]-NH2),5530 nM
6,"CNCC(=O)N[C@@H](Cc1c[nH]cn1)C(=O)N[C@@H](Cc1c[nH]c2ccccc12)C(=O)N[C@@H](CO)C(=O)N[C@@H](Cc1c[nH]cn1)C(=O)N[C@H](CCCNC(=N)N)C(=O)N[C@@H](Cc1c[nH]c2ccccc12)C(=O)N[C@@H](Cc1ccc(O)cc1)C(=O)N1CCC[C@H]1C(=O)NNC(N)=O [BRU-2439, [Sar^1, Darg^6, azaGly^10]LHRH-II] (HELM PEPTIDE1{[Sar].H.W.S.H.[dR].W.Y.P.[O=C(NN[*:1])[*:2]].[am]}$$$$V2.0; N-terminus assumed)",250 nM
7,N=C(N)NCCC[C@H](NC(=O)[C@@H](Cc1ccc2ccccc2c1)NC(=O)CN1CCN(CC(=O)O)CCN(CC(=O)O)CCN(CC(=O)O)CC1)C(=O)N[C@@H](CCC(=O)O)C(=O)N[C@@H](CO)C(=O)N[C@@H](Cc1c[nH]cn1)C(=O)N[C@H](CCCNC(=N)N)C(=O)N[C@@H](Cc1c[nH]c2ccccc12)C(=O)N[C@@H](Cc1ccc(C(=O)c2ccccc2)cc1)C(=O)N1CCC[C@H]1C(=O)NNC(N)=O [BRU-3110] ({DOTA}-[d2Nal]RESH[dR]W[Bpa]P[azaGly]-NH2; C-terminus assumed),2600 nM
8,CN(CC(=O)N[C@@H](Cc1c[nH]cn1)C(=O)N[C@@H](Cc1c[nH]c2ccccc12)C(=O)N[C@@H](CO)C(=O)N[C@@H](Cc1c[nH]cn1)C(=O)N[C@H](CCCNC(=N)N)C(=O)N[C@@H](Cc1c[nH]c2ccccc12)C(=O)NC1(C(=O)N2CCC[C@H]2C(=O)NNC(N)=O)Cc2ccccc2C1)C(=O)CN1CCN(CC(=O)O)CCN(CC(=O)O)CCN(CC(=O)O)CC1 [BRU-2764],4310 nM
9,"N=C(N)NCCC[C@H](NC(=O)[C@@H](Cc1ccc2ccccc2c1)NC(=O)CN1CCN(CC(=O)O)CCN(CC(=O)O)CCN(CC(=O)O)CC1)C(=O)N[C@@H](Cc1c[nH]c2ccccc12)C(=O)N[C@@H](CO)C(=O)N[C@@H](Cc1c[nH]cn1)C(=O)N[C@H](CCCNC(=N)N)C(=O)N[C@@H](Cc1c[nH]c2ccccc12)C(=O)N[C@@H](Cc1ccc(C(=O)c2ccccc2)cc1)C(=O)O [BRU-3064, DO3A10CM-Dna12-Arg-Trp-Ser-His-Darg-Trp-Bpa4-OH] ({DOTA}-[d2Nal]RWSH[dR]W[Bpa]-OH)",720 nM
10,CC(C)C[C@H](NC(=O)[C@H](CO)NC(=O)[C@H](Cc1c[nH]c2ccccc12)NC(=O)[C@H](CCCNC(=N)N)NC(=O)[C@@H](Cc1ccc2ccccc2c1)NC(=O)CN1CCN(CC(=O)O)CCN(CC(=O)O)CCN(CC(=O)O)CC1)C(=O)N[C@H](CCCNC(=N)N)C(=O)N[C@@H](Cc1c[nH]c2ccccc12)C(=O)N[C@@H](Cc1ccc(C(=O)c2ccccc2)cc1)C(=O)N1CCC[C@H]1C(=O)NNC(N)=O [BRU-3029] ({DOTA}-[d2Nal]RWSL[dR]W[Bpa]P[azaGly]-NH2; C-terminus assumed),1210 nM
11,CN(CC(=O)N[C@@H](Cc1c[nH]cn1)C(=O)N[C@@H](Cc1c[nH]c2ccccc12)C(=O)N[C@@H](CO)C(=O)N[C@@H](Cc1c[nH]cn1)C(=O)N[C@H](CCCNC(N)=O)C(=O)N[C@@H](Cc1c[nH]c2ccccc12)C(=O)N[C@@H](Cc1ccc(C(=O)c2ccccc2)cc1)C(=O)N1CCC[C@H]1C(=O)NNC(N)=O)C(=O)CN1CCN(CC(=O)O)CCN(CC(=O)O)CCN(CC(=O)O)CC1 [BRU-2729],14200 nM
12,CC(C)NCCCC[C@H](NC(=O)[C@H](Cc1c[nH]c2ccccc12)NC(=O)[C@@H](CCCNC(=N)N)NC(=O)[C@H](Cc1c[nH]cn1)NC(=O)[C@H](CO)NC(=O)[C@H](Cc1c[nH]c2ccccc12)NC(=O)[C@H](Cc1c[nH]cn1)NC(=O)CN(C)C(=O)CN1CCN(CC(=O)O)CCN(CC(=O)O)CCN(CC(=O)O)CC1)C(=O)N1CCC[C@H]1C(=O)NNC(N)=O [BRU-2675],12300 nM
13,CNCC(=O)N[C@@H](CCCNC(=N)N)C(=O)N[C@@H](Cc1c[nH]c2ccccc12)C(=O)N[C@@H](CO)C(=O)N[C@@H](Cc1c[nH]cn1)C(=O)N[C@H](CCCNC(=N)N)C(=O)N[C@@H](Cc1c[nH]c2ccccc12)C(=O)N[C@@H](Cc1ccc(C(=O)c2ccccc2)cc1)C(=O)N1CCC[C@H]1C(=O)N1CCCCC1CNC(=O)CN1CCN(CC(=O)O)CCN(CC(=O)O)CCN(CC(=O)O)CC1 (stereo partly drawn) [BRU-3102],≤ 200 nM
14,CNCC(=O)N[C@@H](CCCNC(=N)N)C(=O)N[C@@H](Cc1c[nH]c2ccccc12)C(=O)N[C@@H](CO)C(=O)N[C@@H](Cc1c[nH]cn1)C(=O)N[C@H](CCCNC(=N)N)C(=O)N[C@@H](Cc1c[nH]c2ccccc12)C(=O)N[C@@H](Cc1ccc(C(=O)c2ccccc2)cc1)C(=O)N1CCC[C@H]1C(=O)NCc1cccc(CNC(=O)CN2CCN(CC(=O)O)CCN(CC(=O)O)CCN(CC(=O)O)CC2)n1 [BRU-3080],230 to 500 nM
15,N=C(N)NCCC[C@H](NC(=O)[C@@H](Cc1ccc2ccccc2c1)NC(=O)CN1CCN(CC(=O)O)CCN(CC(=O)O)CCN(CC(=O)O)CC1)C(=O)N[C@@H](Cc1c[nH]c2ccccc12)C(=O)N[C@@H](CO)C(=O)N[C@@H](Cc1c[nH]cn1)C(=O)N[C@H](CCCNC(=N)N)C(=O)N[C@@H](Cc1c[nH]c2ccccc12)C(=O)O [compound 3046] (HELM PEPTIDE1{[O=C(O)CN1CCN(CC(=O)O)CCN(CC(=O)[*:2])CCN(CC(=O)O)CC1].[O=C([C@@H](Cc1ccc2ccccc2c1)N[*:1])[*:2]].R.W.S.H.[dR].W}$$$$V2.0; N-terminus assumed),15900 nM

# Same assay, conditions: EFO-27 cells, competition with [125I-Tyr8]BRU-2477, 90 min
row,Structure (SMILES),EC50
1,N=C(N)NCCC[C@H](NC(=O)[C@@H](Cc1ccc2ccccc2c1)NC(=O)CN1CCN(CC(=O)O)CCN(CC(=O)O)CCN(CC(=O)O)CC1)C(=O)N[C@@H](Cc1c[nH]c2ccccc12)C(=O)N[C@@H](CO)C(=O)N[C@@H](Cc1c[nH]cn1)C(=O)N[C@H](CCCNC(=N)N)C(=O)N[C@@H](Cc1c[nH]c2ccccc12)C(=O)N[C@@H](Cc1ccc(C(=O)c2ccccc2)cc1)C(=O)N1CCCC[C@H]1C(=O)NNC(N)=O [compound 2996],350 nM
2,N=C(N)NCCC[C@H](NC(=O)[C@@H](Cc1ccc2ccccc2c1)NC(=O)CN1CCN(CC(=O)O)CCN(CC(=O)O)CCN(CC(=O)O)CC1)C(=O)N[C@@H](Cc1c[nH]c2ccccc12)C(=O)N[C@@H](CO)C(=O)N[C@@H](Cc1c[nH]cn1)C(=O)N[C@H](CCCNC(=N)N)C(=O)N[C@@H](Cc1c[nH]c2ccccc12)C(=O)N[C@@H](Cc1ccc(C(=O)c2ccccc2)cc1)C(=O)N1CCC[C@H]1C(=O)NCC(=O)NCc1ccccc1 [compound 2988],650 nM
3,N=C(N)NCCC[C@H](NC(=O)[C@@H](Cc1ccc2ccccc2c1)NC(=O)CN1CCN(CC(=O)O)CCN(CC(=O)O)CCN(CC(=O)O)CC1)C(=O)N[C@@H](Cc1c[nH]c2ccccc12)C(=O)N[C@@H](CO)C(=O)N[C@@H](Cc1c[nH]cn1)C(=O)N[C@H](CCCNC(=N)N)C(=O)N[C@@H](Cc1c[nH]c2ccccc12)C(=O)N[C@@H](Cc1ccc(C(=O)c2ccccc2)cc1)C(=O)N1CCC[C@H]1C(=O)NCC(N)=O [compound 3005],660 nM

# Same assay, conditions: Table 5: modifications of amino acids at positions 1 and 2; in vitro binding on EFO-27 cells
row,Structure (SMILES),EC50
1,N=C(N)NCCC[C@@H](NC(=O)[C@H](Cc1c[nH]cn1)NC(=O)[C@H](CO)NC(=O)[C@H](Cc1c[nH]c2ccccc12)NC(=O)[C@H](Cc1c[nH]cn1)NC(=O)[C@@H](Cc1cccc2ccccc12)NC(=O)CNC(=O)CN1CCN(CC(=O)O)CCN(CC(=O)O)CCN(CC(=O)O)CC1)C(=O)N[C@@H](Cc1c[nH]c2ccccc12)C(=O)N[C@@H](Cc1ccc(C(=O)c2ccccc2)cc1)C(=O)N1CCC[C@H]1C(=O)NNC(N)=O [BRU-2766],620 nM
2,C[C@@H](C(=O)N[C@@H](Cc1c[nH]cn1)C(=O)N[C@@H](Cc1c[nH]c2ccccc12)C(=O)N[C@@H](CO)C(=O)N[C@@H](Cc1c[nH]cn1)C(=O)N[C@H](CCCNC(=N)N)C(=O)N[C@@H](Cc1c[nH]c2ccccc12)C(=O)N[C@@H](Cc1ccc(C(=O)c2ccccc2)cc1)C(=O)N1CCC[C@H]1C(=O)NNC(N)=O)N(C)C(=O)CN1CCN(CC(=O)O)CCN(CC(=O)O)CCN(CC(=O)O)CC1 [BRU-2736],1420 nM

# Same assay, conditions: ratio of EC50 to BRU-2813 (EC50=0.33 μM)
row,Structure (SMILES),"binding potency, times lower than BRU-2813"
1,N=C(N)NCCC[C@H](NC(=O)[C@@H](Cc1ccc2ccccc2c1)NC(=O)CN1CCN(CC(=O)O)CCN(CC(=O)O)CCN(CC(=O)O)CC1)C(=O)N[C@@H](CCC(=O)O)C(=O)N[C@@H](CO)C(=O)N[C@@H](Cc1c[nH]cn1)C(=O)N[C@H](CCCNC(=N)N)C(=O)N[C@@H](Cc1c[nH]c2ccccc12)C(=O)N[C@@H](Cc1ccc(C(=O)c2ccccc2)cc1)C(=O)N1CCC[C@H]1C(=O)NNC(N)=O [BRU-3110] ({DOTA}-[d2Nal]RESH[dR]W[Bpa]P[azaGly]-NH2; C-terminus assumed),~8
